In ChEMBL document CHEMBL4359928, “Scaffold Morphing To Identify Novel DprE1 Inhibitors with Antimycobacterial Activity” (ACS Med Chem Lett, 2019):
In brackets after ≈: the same amount, converted by molar mass.

Tests used:
Type in all cases: functional
[1] = test system: Mycobacterium tuberculosis; assay: Antimycobacterial activity against Mycobacterium tuberculosis H37Rv harbouring DprE1 Y314S mutant assessed as reduction in bacterial cell growth
[2] = test system: Mycobacterium tuberculosis; assay: Antimycobacterial activity against BTZ043-resistant Mycobacterium tuberculosis H37Rv harbouring DprE1 C387G mutant assessed as reduction in bacterial cell growth
[3] = test system: Mycobacterium tuberculosis; assay: Ratio of MIC for 1,4 azaindole-resistant Mycobacterium tuberculosis H37Rv harboring DprE1 Y314H mutant to MIC for wild type Mycobacterium tuberculosis H37Rv
[4] = test system: Mycobacterium tuberculosis; assay: Antimycobacterial activity against BTZ043-resistant Mycobacterium tuberculosis H37Rv harbouring DprE1 C387S mutant assessed as reduction in bacterial cell growth
[5] = test system: Mycobacterium tuberculosis; assay: Antimycobacterial activity against 1,4-azaindole resistant Mycobacterium tuberculosis H37Rv harbouring DprE1 Y314H mutant assessed as reduction in bacterial cell growth
[6] = test system: Mycobacterium tuberculosis; assay: Ratio of MIC for Mycobacterium tuberculosis H37Rv overexpressing DprE1 to MIC for wild type Mycobacterium tuberculosis H37Rv
[7] = test system: Mycobacterium tuberculosis; assay: Antimycobacterial activity against Mycobacterium tuberculosis H37Rv overexpressing DprE1 assessed as reduction in bacterial cell growth
[8] = Mycobacterium tuberculosis, H37Rv, read-out: MIC

SMILES	MIC [1]	MIC [2]	Ratio [3]	MIC [4]	MIC [5]	Ratio [6]	MIC [7, 8]	MIC [7]
COc1ncnc(Cn2cnc3c(C(=O)NCCF)cccc32)c1C	25 µM (≈ 8.58 µg/mL)	0.78 µM (≈ 0.268 µg/mL)	20	0.78 µM (≈ 0.268 µg/mL)	25 to 50 µM	20	25 to 50 µM (≈ 8.58 to 17.2 µg/mL)	–
CO[C@H]1/C=C/O[C@@]2(C)Oc3c(C)c(O)c4c(O)c(c(/C=N/N5CCN(C)CC5)c(O)c4c3C2=O)NC(=O)/C(C)=C\C=C\[C@H](C)[C@H](O)[C@@H](C)[C@@H](O)[C@@H](C)[C@H](OC(C)=O)[C@@H]1C [RIFAMPIN]	–	0.005 µM (≈ 0.00411 µg/mL)	–	0.005 µM (≈ 0.00411 µg/mL)	–	–	0.005 µM (≈ 0.00411 µg/mL)	–
C[C@H]1COC2(CCN(c3nc(=O)c4cc(C(F)(F)F)cc([N+](=O)[O-])c4s3)CC2)O1 [BTZ-043]	0.006 µM (≈ 0.00259 µg/mL)	25 µM (≈ 10.8 µg/mL)	–	25 µM (≈ 10.8 µg/mL)	0.003 µM (≈ 0.00129 µg/mL)	–	–	12.5 µM (≈ 5.39 µg/mL)
NNC(=O)c1ccncc1 [ISONIAZID]	0.22 µM (≈ 0.0302 µg/mL)	0.44 µM (≈ 0.0603 µg/mL)	–	0.44 µM (≈ 0.0603 µg/mL)	0.44 µM (≈ 0.0603 µg/mL)	–	0.22 µM (≈ 0.0302 µg/mL)	–
